Measurements from patent publication US9532970B2, “Compositions for anti-inflammatory, antioxidant effects and improved respiratory function by specific histone deacetylase inhibition” (priority 2014, dated 2017).
Like-named read-outs stand apart in the source and are kept apart here.

What was measured:
[1] = system: peripheral blood mononuclear cells (PBMC)

SMILES: C[S@@+]([O-])CCCCN=C=S [LSF, (R)-1-Isothiocyanato-4-(methylsulfinyl)butane]
- NES (Horse PBMC; ENCODE TF target set GM12878RAD21 (r27)): −3.95
- NES (Horse PBMC; ENCODE TF target set GM12878_RAD21 (r28)): −3.79
- NES (Horse PBMC; ENCODE TF target set GM12878_YY1): 3.41
- NES (Horse PBMC; ENCODE TF target set GM12878_ZBTB33 (r17)): 3.05
- NES (Horse PBMC; ENCODE TF target set GM12878_ZBTB33 (r21)): 2.89
- NES (Horse PBMC; ENCODE TF target set H1HESC_POL2 (r12)): 3.34
- NES (Horse PBMC; ENCODE TF target set H1HESC_POL2 (r13)): 3.33
- NES (Horse PBMC; ENCODE TF target set H1NEURONS_NRSF): 2.84
- NES (Horse PBMC; ENCODE TF target set HEPG2_GRP20_FORSKLN): 3.01
- NES (Horse PBMC; ENCODE TF target set HEPG2_ZBTB33 (r11)): 3.35
- NES (Horse PBMC; ENCODE TF target set HEPG2_ZBTB33 (r14)): 3.23
- NES (Horse PBMC; ENCODE TF target set K562_KAP1): 3.04
- NES (Horse PBMC; ENCODE TF target set K562_STAT1_IFNA6H): −4.54
- NES (Horse PBMC; ENCODE TF target set K562_STAT2_IFNA6H): −4.45
- NES (Horse PBMC; ENCODE TF target set K562_TR4UCD): 3.13
- NES (Horse PBMC; ENCODE TF target set K562_ZBTB33): 2.78
- NES (Horse PBMC; ENCODE TF target set MCF10AES_STAT3): −3.75
- NES (Horse PBMC; ENCODE TF target set SHSY5Y_GATA3): 3.13
- NES (Horse PBMC; ENCODE TF target set SKNMC_POL2): 2.91
- NES (Horse PBMC; ENCODE TF target set U2OS_SETDB1): 2.83
- expression of CD markers, immunoglobulin containing genes and interleukins (Horse PBMC; LSF vs control): strongly down-regulated
- pathways related to interferon signalling, STAT1/2 targets and autoimmune/auto-inflammatory diseases (Horse PBMC; LSF vs control): strongly downregulated
- NES (Horse PBMC; MSigDB gene set ATGTTAA, MIR-302C): 4.19
- NES (Horse PBMC; MSigDB gene set CHEN HOXA5 TARGETS 9HR UP): 4.3
- NES (Horse PBMC; MSigDB gene set CTTGTAT, MIR-381): 4.1
- NES (Horse PBMC; MSigDB gene set FULCHER INFLAMMATORY RESPONSE LECTIN VS LPS DN): −5.59
- NES (Horse PBMC; MSigDB gene set GABRIELY MIR21 TARGETS): 3.8
- NES (Horse PBMC; MSigDB gene set GCM DFFA): 4.6
- NES (Horse PBMC; MSigDB gene set GCM MLL): 4.08
- NES (Horse PBMC; MSigDB gene set GCM MYST2): 4.99
- NES (Horse PBMC; MSigDB gene set GCM RAB10): 3.8
- NES (Horse PBMC; MSigDB gene set GCM SUFU): 4.3
- NES (Horse PBMC; MSigDB gene set GCM UBE2N): 4.65
- NES (Horse PBMC; MSigDB gene set GCM ZNF198): 4.95
- NES (Horse PBMC; MSigDB gene set GSE10239 NAIVE VS MEMORY CD8 TCELL UP): 4.2
- NES (Horse PBMC; MSigDB gene set GSE10325 CD4 TCELL VS MYELOID DN): −6.35
- NES (Horse PBMC; MSigDB gene set GSE10325 LUPUS BCELL VS LUPUS MYELOID DN): −6.47
- NES (Horse PBMC; MSigDB gene set GSE10325 LUPUS CD4 TCELL VS LUPUS MYELOID DN): −7.15
- NES (Horse PBMC; MSigDB gene set GSE11057 CD4 EFF MEM VS PBMC DN): −5.63
- NES (Horse PBMC; MSigDB gene set GSE13485 CTRL VS DAY3 YF17D VACCINE PBMC DN): −5.66
- NES (Horse PBMC; MSigDB gene set GSE13485 CTRL VS DAY7 YF17D VACCINE PBMC DN): −6.96
- NES (Horse PBMC; MSigDB gene set GSE13485 DAY3 VS DAY7 YF17D VACCINE PBMC DN): −5.63
- NES (Horse PBMC; MSigDB gene set GSE13485 DAY7 VS DAY21 YF17D VACCINE PBMC UP): −5.61
- NES (Horse PBMC; MSigDB gene set GSE22866 NAIVE CD4 TCELL VS MONOCYTE DN): −5.6
- NES (Horse PBMC; MSigDB gene set GSE24634 IL4 VS CTRL TREATED NAIVE CD4 TCELL DAY5 UP): −5.8
- NES (Horse PBMC; MSigDB gene set GSE24634 TREG VS TCONV POST DAY10 IL4 CONVERSION DN): −5.97
- NES (Horse PBMC; MSigDB gene set GSE29617 CTRL VS DAY3 TIV FLU VACCINE PBMC 2008 UP): 4.12
- NES (Horse PBMC; MSigDB gene set GSE29618 BCELL VS MDC DAY7 FLU VACCINE DN): −5.93
- NES (Horse PBMC; MSigDB gene set HAMAI APOPTOSIS VIA TRAIL UP): 5.42
- NES (Horse PBMC; MSigDB gene set MCLACHLAN DENTAL CARIES UP): −5.67
- NES (Horse PBMC; MSigDB gene set MEISSNER BRAIN HCP WITH H3K4ME3 AND H3K27ME3): −5.6
- NES (Horse PBMC; MSigDB gene set MILI PSEUDOPODIA HAPTOTAXIS UP): 4.81
- NES (Horse PBMC; MSigDB gene set MODULE 45): −5.9
- NES (Horse PBMC; MSigDB gene set MODULE 46): −6.22
- NES (Horse PBMC; MSigDB gene set MODULE 75): −5.9
- NES (Horse PBMC; MSigDB gene set MODULE 84): −7.87
- NES (Horse PBMC; MSigDB gene set MRNA METABOLIC PROCESS): 4.19
- NES (Horse PBMC; MSigDB gene set REACTOME GENERIC TRANSCRIPTION PATHWAY): 4.19
- NES (Horse PBMC; MSigDB gene set RNA PROCESSING): 4.02
- NES (Horse PBMC; MSigDB gene set SHEN SMARCA2 TARGETS UP): 5.39
- NES (Horse PBMC; MSigDB gene set V$NFMUE1 Q6): 3.98
- NES (Horse PBMC; MSigDB gene set WALLACE PROSTATE CANCER RACE UP): −5.66
- NES (Horse PBMC; Reactome gene set ACTIVATION OF KAINATE RECEPTORS UPON GLUTAMATE BINDING): −2.56
- NES (Horse PBMC; Reactome gene set ANTIGEN PROCESSING UBIQUITINATION PROTEASOME DEGRADATION): 2.7
- NES (Horse PBMC; Reactome gene set ASSOCIATION OF TRIC CCT WITH TARGET PROTEINS DURING BIOSYNTHESIS): 2.62
- NES (Horse PBMC; Reactome gene set CLASS A1 RHODOPSIN LIKE RECEPTORS): −2.68
- NES (Horse PBMC; Reactome gene set CLEAVAGE OF GROWING TRANSCRIPT IN THE TERMINATION REGION): 3.33
- NES (Horse PBMC; Reactome gene set CYTOKINE SIGNALLING IN IMMUNE SYSTEM): −2.84
- NES (Horse PBMC; Reactome gene set DOWNSTREAM SIGNALING EVENTS OF B CELL RECEPTOR BCR): 3.12
- NES (Horse PBMC; Reactome gene set G ALPHA1213 SIGNALLING EVENTS): −2.54
- NES (Horse PBMC; Reactome gene set G ALPHA I SIGNALLING EVENTS): −2.41
- NES (Horse PBMC; Reactome gene set G ALPHA SIGNALLING EVENTS): −2.82
- NES (Horse PBMC; Reactome gene set GABA RECEPTOR ACTIVATION): −2.39
- NES (Horse PBMC; Reactome gene set GENERIC TRANSCRIPTION PATHWAY): 4.23
- NES (Horse PBMC; Reactome gene set GPCR DOWNSTREAM SIGNALING): −3.63
- NES (Horse PBMC; Reactome gene set GPCR LIGAND BINDING): −2.67
- NES (Horse PBMC; Reactome gene set HIV LIFE CYCLE): 2.41
- NES (Horse PBMC; Reactome gene set IMMUNOREGULATORY INTERACTIONS BETWEEN A LYMPHOID AND A NON LYMPHOID CELL): −3.37
- NES (Horse PBMC; Reactome gene set INTERFERON ALPHA BETA SIGNALING): −4
- NES (Horse PBMC; Reactome gene set INTERFERON GAMMA SIGNALING): −3.9
- NES (Horse PBMC; Reactome gene set INTERFERON SIGNALING): −3.18
- NES (Horse PBMC; Reactome gene set LATE PHASE OF HIV LIFE CYCLE): 2.44
- NES (Horse PBMC; Reactome gene set MHC CLASS II ANTIGEN PRESENTATION): −2.47
- NES (Horse PBMC; Reactome gene set MRNA 3 END PROCESSING): 3.5
- NES (Horse PBMC; Reactome gene set MRNA PROCESSING): 3.68
- NES (Horse PBMC; Reactome gene set MRNA SPLICING): 3.09
- NES (Horse PBMC; Reactome gene set OPIOID SIGNALLING): −2.55
- NES (Horse PBMC; Reactome gene set PEPTIDE CHAIN ELONGATION): −2.43
- NES (Horse PBMC; Reactome gene set PI3K EVENTS IN ERBB2 SIGNALING): 2.49
- NES (Horse PBMC; Reactome gene set PI3K EVENTS IN ERBB4 SIGNALING): 2.52
- NES (Horse PBMC; Reactome gene set PIP3 ACTIVATES AKT SIGNALING): 2.48
- NES (Horse PBMC; Reactome gene set PROCESSING OF CAPPED INTRON CONTAINING PRE MRNA): 3.61
- NES (Horse PBMC; Reactome gene set RECRUITMENT OF MITOTIC CENTROSOME PROTEINS AND COMPLEXES): 2.55
- NES (Horse PBMC; Reactome gene set REGULATION OF MRNA STABILITY BY PROTEINS THAT BIND AU RICH ELEMENTS): 2.6
- NES (Horse PBMC; Reactome gene set REGULATION OF ORNITHINE DECARBOXYLASE ODC): 2.45
- NES (Horse PBMC; Reactome gene set RESPIRATORY ELECTRON TRANSPORT ATP SYNTHESIS BY CHEMIOSMOTIC COUPLING AND HEAT PRODUCTION BY UNCOULPLING PROTEINS): −2.69
- NES (Horse PBMC; Reactome gene set RNA POL II TRANSCRIPTION): 3.32
- NES (Horse PBMC; Reactome gene set SIGNALING BY GPCR): −3.35
- NES (Horse PBMC; Reactome gene set SIGNALING BY RHO GTPASES): −2.87
- NES (Horse PBMC; Reactome gene set TCA CYCLE AND RESPIRATORY ELECTRON TRANSPORT): −2.8
- NES (Horse PBMC; Reactome gene set TRANSCRIPTION): 3.25
- NES (Horse PBMC; Reactome gene set TRANSPORT OF MATURE TRANSCRIPT TO CYTOPLASM): 3.02
- reduction in chemokines and cytokines relative to Trichostatin A (TSA), SAHA and sodium butyrate (NaB) ([1]; 1 μM TSA, 10 μM SAHA, 10 mM NaB, 15 or 30 μM LSF): more pronounced effects
- levels of TNF-α, IL-1β, IL-6, IL-8, MIP-1β and IP-10 in supernatants ([1]; 15 μM LSF or 30 μM LSF, FIG. 3): reduction
